Measured values: US9346832B2, “Gold complexes for use in the treatment of cancer” (University of Kwazulu-Natal, priority 2010, dated 2016)
“Also recorded” adds a separate entry of the source.

Experiments:
topoisomerase II = topoisomerase II (Homo sapiens, UniProt P11388); assay: Topoisomerase II DNA cleavage/relaxation assay, supercoiled plasmid DNA, EB gel (TopoGEN protocol); type: biochemical
Method: (§1) The compound MA_AuPr clearly targets topoisomerase II if the statistical analysis of the NCI data for a range of drugs shown in FIG. 13 is correct. MA_AuPr was therefore assayed for its action against topoisomerase II in vitro using TopoGEN's standard protocol over a wide range of test agent concentrations (0.005 to 500 μM) in order to obtain direct experimental proof for the apparent cellular target of the compound to ensure that a fundamental understanding of the mechanism of action of this new class of Au(III) compounds exists. These experiments were performed by the company TopoGEN and at the University of Central Florida. The DNA cleavage experiments were performed in vitro using purified topoisomerase I and II enzymes and supercoiled plasmid DNA as the substrate. The controls that were used in the experiment were linear marker DNA as well as reactions without the gold(III) complex and high concentrations of VP16. The compound VP16 (etoposide) is a commercially available DNA intercalator chemotherapeutic agent, widely used in the treatment of lung and testicular cancers as well as lymphomas. The choice of VP16 as a control is based on the fact that it is a poor topoisomerase II inhibitor, but is a powerful topoisomerase II poison which arrests the enzyme's cycle at the ternary drug-enzyme-DNA cleavage complex stage, leading to observation of linear DNA fragments upon SDS denaturation of the enzyme (i.e., work-up). Comparison of the VP16 results with the results of MA_AuPr would therefore give a good indication of whether the gold(III) chelate is an inhibitor or a poison.
Lane 1 of the gel (FIG. 14) is the control experiment with only supercoiled plasmid DNA present. The control contains no topoisomerase II and so the DNA supercoiled structure cannot be relaxed, as the topoisomerase II enzyme would usually do. […] At a higher concentration of the test agent (50 μM), both supercoiled plasmid DNA and linear cleavage products are observed. […] At very high concentrations (>500 μM), MA_AuPr behaves exclusively as a catalytic inhibitor of the enzyme.
The role of gold(III) in the efficacy of the compound was determined by modifying the structure of MA_AuPr by replacing the Au(III) cation with Pd(II) to afford MA_PdPr (the isoelectronic square planar coordination complex of known structure and geometry^31) and carrying out the DNA relaxation assay with topoisomerase II as before. The metal-free ligand (MA_H2PrLig) was tested under identical conditions to confirm that the mechanism of action is related to the intact structure of the metal chelate.

topoisomerase I = target: T1, topoisomerase I (Homo sapiens, UniProt P11387); assay: Topoisomerase I poison/inhibitor EB gel assay; type: biochemical; settings: compared with CPT (camptothecin)
T1 sequence (P11387 1-765): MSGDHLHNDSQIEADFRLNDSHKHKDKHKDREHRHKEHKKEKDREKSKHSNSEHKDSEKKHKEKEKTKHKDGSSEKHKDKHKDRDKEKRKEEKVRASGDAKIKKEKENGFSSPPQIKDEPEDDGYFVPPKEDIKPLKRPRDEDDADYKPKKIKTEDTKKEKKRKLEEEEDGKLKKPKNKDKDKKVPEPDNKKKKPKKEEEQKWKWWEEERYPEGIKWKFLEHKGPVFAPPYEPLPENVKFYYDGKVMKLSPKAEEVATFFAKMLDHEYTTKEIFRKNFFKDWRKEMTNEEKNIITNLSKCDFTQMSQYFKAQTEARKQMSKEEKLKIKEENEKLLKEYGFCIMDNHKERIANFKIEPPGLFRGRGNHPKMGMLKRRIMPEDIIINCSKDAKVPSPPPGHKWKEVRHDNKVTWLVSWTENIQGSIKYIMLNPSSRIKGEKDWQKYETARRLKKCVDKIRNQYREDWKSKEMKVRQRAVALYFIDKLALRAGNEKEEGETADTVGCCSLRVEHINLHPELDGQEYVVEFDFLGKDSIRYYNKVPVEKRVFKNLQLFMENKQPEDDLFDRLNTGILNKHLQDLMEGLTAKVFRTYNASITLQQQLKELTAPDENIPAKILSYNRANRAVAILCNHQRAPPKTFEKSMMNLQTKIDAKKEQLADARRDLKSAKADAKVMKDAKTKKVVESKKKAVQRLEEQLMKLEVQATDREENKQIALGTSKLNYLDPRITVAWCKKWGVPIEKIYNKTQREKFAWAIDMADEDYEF
Method: as §1, with “The choice of VP16 as a control is based on the fact that it is a poor topoisomerase II inhibitor, but is a powerful topoisomerase II poison which arrests the enzyme's cycle at the ternary drug-enzyme-DNA cleavage complex stage, leading to observation of linear DNA fragments upon SDS denaturation of the enzyme (i.e., work-up). Comparison of the VP16 results with the results of MA_AuPr would therefore give a good indication of whether the gold(III) chelate is an inhibitor or a poison.” left out

calf thymus DNA = assay: Calf-thymus DNA titration (absorption hypochroism); type: binding; settings: MA series: pH 7.0 phosphate buffer at 37° C.
Method: FIG. 20 is a graph of the titration of MA_AuPr (1.1a) with calf-thymus DNA in aqueous pH 7 phosphate buffer at 37° C.
The hypochroism of the absorption band of the complex at 383 nm was monitored as a function of added ctDNA. […] Ka is the equilibrium binding constant in M^−1, Ct is the total Au(III) complex concentration, and s is the binding site size.

Microsomal clearance = type: in vitro ADME; settings: microsomes
Excerpt: First, the compound is not genotoxic (i.e. mutagenic).

plasma protein = assay: Plasma protein binding; type: in vitro ADME; settings: LC-MS
Excerpt: (§2) This is why binding to DNA of the intact chelate occurs (FIGS. 14 and 20). However, it is noteworthy that hydrolysis of a Au(III)-Npyrrole bond is a reaction that may be catalyzed by enzymes in plasma and could account for the plasma instability of MA_AuPr.

[1] = type: in vivo, mouse
Method: FIG. 22 is a plot showing the mouse survival data as a function of metallodrug dose for MA_AuPr.
A single dose of the compound was administered by injection over the first week followed by two injections per week per mouse for a total period of 50 days.

[2] = Hydrolysis in aqueous solution; type: physicochemical; settings: aqueous / phosphate buffered aqueous solutions
Excerpt: as §2

topoisomerase II, sequence (P11388 whole entry): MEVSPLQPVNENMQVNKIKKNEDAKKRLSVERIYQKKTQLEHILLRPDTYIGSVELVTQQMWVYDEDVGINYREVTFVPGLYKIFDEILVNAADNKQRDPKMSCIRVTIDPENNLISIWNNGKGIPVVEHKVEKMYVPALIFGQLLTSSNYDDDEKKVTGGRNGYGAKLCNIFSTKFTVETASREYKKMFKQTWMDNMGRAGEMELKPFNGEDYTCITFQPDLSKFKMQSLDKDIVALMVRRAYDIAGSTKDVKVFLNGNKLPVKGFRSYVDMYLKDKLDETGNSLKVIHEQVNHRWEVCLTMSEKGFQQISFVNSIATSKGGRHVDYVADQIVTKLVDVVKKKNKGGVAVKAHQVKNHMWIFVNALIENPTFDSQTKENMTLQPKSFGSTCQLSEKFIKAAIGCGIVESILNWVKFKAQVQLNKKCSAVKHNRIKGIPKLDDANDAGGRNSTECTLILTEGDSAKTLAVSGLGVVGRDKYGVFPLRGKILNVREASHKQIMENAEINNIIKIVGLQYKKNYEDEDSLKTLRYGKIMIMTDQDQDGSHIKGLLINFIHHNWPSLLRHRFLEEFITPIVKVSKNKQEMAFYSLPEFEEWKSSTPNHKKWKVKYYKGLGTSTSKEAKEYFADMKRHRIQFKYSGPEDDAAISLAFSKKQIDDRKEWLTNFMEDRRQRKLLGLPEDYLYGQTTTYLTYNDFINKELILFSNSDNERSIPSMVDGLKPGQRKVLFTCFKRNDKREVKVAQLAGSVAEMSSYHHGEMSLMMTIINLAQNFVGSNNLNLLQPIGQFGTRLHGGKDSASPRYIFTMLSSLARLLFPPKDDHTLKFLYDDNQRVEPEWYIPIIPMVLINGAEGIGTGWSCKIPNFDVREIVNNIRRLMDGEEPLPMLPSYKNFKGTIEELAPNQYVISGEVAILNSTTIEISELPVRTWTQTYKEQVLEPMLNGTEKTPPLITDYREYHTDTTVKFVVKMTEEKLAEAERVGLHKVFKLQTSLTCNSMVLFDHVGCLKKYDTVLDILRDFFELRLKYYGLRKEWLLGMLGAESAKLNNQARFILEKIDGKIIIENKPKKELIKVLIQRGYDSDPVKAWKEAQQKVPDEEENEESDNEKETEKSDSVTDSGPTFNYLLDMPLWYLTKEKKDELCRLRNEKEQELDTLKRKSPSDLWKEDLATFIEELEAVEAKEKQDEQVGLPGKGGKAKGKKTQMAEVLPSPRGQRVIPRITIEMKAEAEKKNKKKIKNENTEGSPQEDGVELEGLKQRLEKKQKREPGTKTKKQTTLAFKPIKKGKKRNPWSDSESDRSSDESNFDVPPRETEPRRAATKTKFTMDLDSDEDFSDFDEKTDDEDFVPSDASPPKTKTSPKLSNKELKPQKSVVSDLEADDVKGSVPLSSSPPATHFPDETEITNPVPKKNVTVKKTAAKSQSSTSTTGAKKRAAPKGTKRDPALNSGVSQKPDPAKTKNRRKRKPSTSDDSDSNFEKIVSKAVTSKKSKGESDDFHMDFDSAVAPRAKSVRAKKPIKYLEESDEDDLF

With `C1=NCCCN=Cc2ccc[n]2[Au+][n]2cccc21.[Cl-]` [MA_AuPr, 2,2′-{propane-1,3-diylbis[nitrilo(E)methylylidene]}bis(pyrrol-1-ido)gold(III) chloride] the “concentration at which compound behaves exclusively as catalytic inhibitor” value (topoisomerase II) was greater than 500 µM, the “action on topoisomerase II” value (topoisomerase II; compared with VP-16 (etoposide)) was “both a poison and a catalytic topoisomerase II inhibitor” and the “concentration of catalytic inhibition of topoisomerase II” value (topoisomerase II; supercoiled plasmid DNA not relaxed) was 50 µM. The “concentration at which topoisomerase II poisoning (DNA cleavage induction) is observed” value (topoisomerase II; supercoiled plasmid DNA, linear cleavage products) was 0.5 µM, the “activity against topoisomerase I” value (topoisomerase I) was “inactivity; also recorded: not a topoisomerase I poison” and the “Ka (calf thymus DNA)” value (calf thymus DNA) was 2.05(2) × 10^5 M^−1. For the same compound, the “Microsomal clearance t1/2” value (Microsomal clearance) was “t1/2 < 10 min”, the Plasma protein binding (plasma protein) was “did not bind to plasma protein; also recorded: No binding - drug” and the “health and weight of mice” value ([1]; 1 to 30 μmol/kg, 50 days) was “remained healthy and showed no abnormal weight changes”. The acute toxicity ([1]; mice, injection, 1 to 30 μmol/kg doses) was greater than 30 μmol/kg/week, the chronic toxicity ([1]; mice, two injections per week, 50 days) was greater than 60 μmol/kg/week and the hydrolysis [2] was “did not show hydrolysis”.
